Source: PubChem BioAssay (NCI)
Values joined by “and” are separate entries in the source; they are usually repeats but may differ in a detail not shown here. Equal entries are not always repeated.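 96-well plates; 48 h exposure; 5 concentrations. Endpoints by linear interpolation between flanking doses. Not reached: highest tested concentration assigned. Here, GI50 denotes the concentration required for 50% inhibition of growth. TGI: concentration producing complete growth inhibition.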

Experiments:
Test in all cases: NCI-60 cell line screen, 48 h
A549 NSCLC = tested on: A549 NSCLC
HCC-2998 colon = tested on: HCC-2998 colon
HOP-92 NSCLC = tested on: HOP-92 NSCLC
KM20L2 colon = tested on: KM20L2 colon
LXFL 529 NSCLC = tested on: LXFL 529 NSCLC
SN12C renal = tested on: SN12C renal
SW-620 colon = tested on: SW-620 colon
UO-31 renal = tested on: UO-31 renal
EKVX NSCLC = tested on: EKVX NSCLC
HS 578T breast = tested on: HS 578T breast

SMILES | TGI (A549 NSCLC) | TGI (HCC-2998 colon) | TGI (HOP-92 NSCLC) | TGI (KM20L2 colon) | TGI (LXFL 529 NSCLC) | TGI (SN12C renal) | TGI (SW-620 colon) | TGI (UO-31 renal) | TGI (EKVX NSCLC) | GI50 (A549 NSCLC) | GI50 (EKVX NSCLC) | GI50 (HCC-2998 colon) | GI50 (HOP-92 NSCLC) | GI50 (HS 578T breast) | TGI (HS 578T breast) | GI50 (KM20L2 colon) | GI50 (LXFL 529 NSCLC) | GI50 (SN12C renal) | GI50 (SW-620 colon) | GI50 (UO-31 renal)
Oc1ccc2ccccc2c1N=Nc1ccsc1 | > 100 µM | > 100 µM | > 100 µM | > 100 µM | > 100 µM | > 100 µM | > 100 µM | > 100 µM |  |  |  |  |  |  |  |  |  |  |  | 
C[C@]12CC/C(=N\O)C=C1CC[C@@H]1C2CC[C@@]2(C)C1CC[C@@H]2OC1CCCCO1 (some centres undefined) | 53 µM | 29.5 µM | 31.9 µM | 30.4 µM | 31.8 µM | > 10 µM | 32 µM | 43.7 µM | 31.9 µM |  |  |  |  |  |  |  |  |  |  | 
Cn1cnc([N+](=O)[O-])c1Sc1nccn1-c1cccc2ccccc12 | > 100 µM | > 100 µM | 54.9 µM | > 100 µM | 99.4 µM | > 100 µM | > 100 µM | > 100 µM | 92.4 µM |  |  |  |  |  |  |  |  |  |  | 
CN1C(=O)C2C3C=C4c5ccccc5N(c5ccccc5)C4(C2C1=O)[C@H]1C(=O)N(C)C(=O)[C@@H]31 (some centres undefined) | > 100 µM | > 100 µM | > 100 µM | > 100 µM | > 100 µM | > 100 µM | > 100 µM | > 100 µM | > 100 µM |  |  |  |  |  |  |  |  |  |  | 
O=c1c(Br)cc2nc3ccccc3sc-2c1Br | > 100 µM | > 100 µM | > 100 µM | > 100 µM | > 100 µM | > 100 µM | > 100 µM | > 100 µM | > 100 µM |  |  |  |  |  |  |  |  |  |  | 
CC(=O)OC[C@@H](COC(=O)/C=C/c1ccc(O)cc1)OC1OC(CO)C(O)C(O)C1O (some centres undefined) | > 100 µM | > 100 µM | > 100 µM | > 100 µM | > 100 µM | > 100 µM | > 100 µM | > 100 µM | > 100 µM |  |  |  |  |  |  |  |  |  |  | 
CCOC(=O)N1CCC(=O)C(CNC23CC4CC(CC(C4)C2)C3)C1 (centres undefined) | > 100 µM |  | 41 µM | > 100 µM | 33.3 µM | > 100 µM | 39.5 µM | > 100 µM | > 100 µM |  |  |  |  |  |  |  |  |  |  | 
CC12CCC3(OCCO3)C(OC(=O)c3ccccc3)=C1CCC21OCCO1 (centres undefined) | > 100 µM | > 100 µM | > 100 µM | > 100 µM | > 100 µM | > 100 µM | > 100 µM | > 100 µM | > 100 µM |  |  |  |  |  |  |  |  |  |  | 
O=C(O)CCC(N=Cc1nc(-c2ccccc2)oc1O)C(=O)O (centres undefined) | > 100 µM | > 100 µM |  | > 100 µM | > 100 µM | > 100 µM | > 100 µM | > 100 µM | > 100 µM |  |  |  |  |  |  |  |  |  |  | 
O=C(O)C1(C(=O)O)CCC1.[NH2-].[NH2-].[Pt+2] | 226 µM and > 250 µM | > 250 µM | 222 µM and 246 µM | > 235 µM | > 250 µM | 237 µM and > 250 µM | > 250 µM | > 242 µM | > 250 µM | 107 µM and 185 µM | 194 µM and > 250 µM | 209 µM and > 250 µM | 125 µM and 106 µM | 73.6 µM and 121 µM | > 250 µM | 212 µM | 247 µM | 154 µM and > 177 µM | 162 µM and > 250 µM | 167 µM and 84.1 µM
COC(=O)C(C(=O)OC)C1CCCC(=O)C1 (centres undefined) | > 100 µM | > 100 µM | > 100 µM | > 100 µM | > 100 µM | > 100 µM | > 100 µM | > 100 µM | > 100 µM |  |  |  |  |  |  |  |  |  |  | 
CCC[CH2][Sn]1([CH2]CCC)[O]CC(CN(C)Cc2ccccc2)[O]1 (centres undefined) | 38.6 µM | 23.3 µM | 19.7 µM | 26 µM | 5 µM | 21.9 µM | 11.1 µM | 24.7 µM | 27.3 µM | 19.6 µM | 10.7 µM | 11 µM | 3.94 µM |  |  | 12 µM | 1.6 µM | 10.1 µM | 2.77 µM | 12.2 µM
Cc1cccc(C)c1NC(=O)C1C(=O)N(c2c(C)cccc2C)C(=O)/C1=N\N (centres undefined) | > 100 µM | > 100 µM | > 100 µM | > 100 µM | > 100 µM | > 100 µM | > 100 µM | > 100 µM | > 100 µM |  |  |  |  |  |  |  |  |  |  | 
O=C(CCN1CCN(c2ccccc2)CC1)N1CCc2c([nH]c3ccccc23)C1c1cccnc1 (centres undefined) | 29.7 µM | 36.1 µM | 37.7 µM | 29.5 µM | 31.6 µM | 29.6 µM | 32.7 µM | 26.1 µM | 34.7 µM |  |  |  |  |  |  |  |  |  |  | 
NC(=O)/N=C1/CCC2C3CCCC2C13 | > 100 µM | > 100 µM | > 100 µM | > 100 µM | > 100 µM | > 100 µM | > 100 µM | > 100 µM | > 100 µM |  |  |  |  |  |  |  |  |  |  | 
COC(=O)c1cccn1C(=O)n1cccc1 | > 100 µM | > 100 µM | > 100 µM | > 100 µM | > 100 µM | > 100 µM | > 100 µM | > 100 µM | > 100 µM |  |  |  |  |  |  |  |  |  |  | 
C/C(CC(=O)Nc1ccc(C)c(C)c1)=N\NC(N)=O | > 100 µM | > 100 µM | > 100 µM | > 100 µM | > 100 µM |  | > 100 µM | > 100 µM | > 100 µM |  |  |  |  |  |  |  |  |  |  | 
CC(C)([NH-])CO.CC(C)([NH-])CO.[Cl][Cd][Cl] | > 100 µM | 59.5 µM | 34 µM | 79.7 µM | 29.3 µM |  | 38.9 µM | > 100 µM |  | 30.2 µM |  | 19.3 µM | 19.3 µM |  |  | 30.9 µM | 15 µM |  | 18.6 µM | 35.4 µM
Cc1ccc(NC(=O)CC2Sc3ccccc3NC2=O)c(C)c1 (centres undefined) | 39.7 µM | 27.3 µM | 39.5 µM | 30.5 µM | 71.1 µM | > 100 µM | 56 µM | 34.8 µM | > 100 µM |  |  |  |  |  |  |  |  |  |  | 
O=[P+](O)c1ccsc1 | > 100 µM |  | > 100 µM | > 100 µM | > 100 µM | > 100 µM | > 100 µM | > 100 µM | > 100 µM |  |  |  |  |  |  |  |  |  |  | 
O=C(c1ccccc1)C1OC12C(=O)Nc1c(Cl)cc(Cl)cc12 (centres undefined) | > 100 µM | > 100 µM | > 93.2 µM | > 100 µM | > 53.9 µM | > 91.2 µM | 35.4 µM | > 100 µM | > 100 µM |  |  |  |  |  |  |  |  |  |  | 
CCC/C(=N\NC(=S)N1CC2CCC(CC2)C1)c1ccccn1 | 5.23 µM and 2.01 µM | 1.48 µM and 1.86 µM | 0.879 µM and 1.34 µM |  | 0.143 µM and 0.129 µM | 4.54 µM and 4.73 µM | 0.555 µM and 0.221 µM | 4.26 µM and 1.79 µM |  | 0.122 µM | 0.186 µM | 0.244 µM | 0.0362 µM |  | 4.43 µM | 0.0165 µM |  | 0.161 µM |  | 0.124 µM
